The target in assay [1] is Sodium channel protein type 4 subunit alpha (Homo sapiens, UniProt P35499). Description: Inhibition of human Nav1.4 stably expressed in cells with train pulses to -20 mV at 0.1 Hz and holding potential of -95 mV by whole-cell Qube-automated patch clamp assay. Type of assay: cell-based.
For assay [2], the target named is Sodium channel protein type 8 subunit alpha (Homo sapiens, UniProt Q9UQD0). The assay can be described thus: Inhibition of human Nav1.6 stably expressed in cells with train pulses to -20 mV at 0.1 Hz and holding potential of -85 mV by whole-cell Qube-automated patch clamp assay. Type of assay: cell-based.
Assay [3] in a line: Inhibition of mast cell degranulation in Wistar Han rat peritoneal lavage mast cells assessed as inhibition histamine release by measuring lowest concentration at which histamine release observed measured after 30 mins. Type of assay: functional. Particulars: 0.5 h.
In assay [4] the target is Sodium channel protein type 9 subunit alpha (Homo sapiens, UniProt Q15858). Description: Inhibition of human Nav1.7 stably expressed in cells with train pulses to -20 mV at 0.1 Hz and holding potential of -95 mV by Qube-automated patch clamp assay. It counts as cell-based.

Where a SMILES comes first, the peptide text is derived from it. Bridges are numbered along the chain shown (N, C = ends). [ ]: non-standard residue; d: D form. Trp(5-Br) = N[C@@H](Cc1c[nH]c2ccc(Br)cc12)C(=O)O; Abu(4,4,4-F3) = N[C@@H](CC(F)(F)F)C(=O)O; Phe(3-Cl) = N[C@@H](Cc1cccc(Cl)c1)C(=O)O; Phe(4-Cl) = N[C@@H](Cc1ccc(Cl)cc1)C(=O)O; Cha = N[C@@H](CC1CCCCC1)C(=O)O; Chg = N[C@H](C(=O)O)C1CCCCC1

We go through seven compounds from ChEMBL document CHEMBL5038633 (J Med Chem, 2022).

Chain of Sodium channel protein type 8 subunit alpha (Q9UQD0 whole entry): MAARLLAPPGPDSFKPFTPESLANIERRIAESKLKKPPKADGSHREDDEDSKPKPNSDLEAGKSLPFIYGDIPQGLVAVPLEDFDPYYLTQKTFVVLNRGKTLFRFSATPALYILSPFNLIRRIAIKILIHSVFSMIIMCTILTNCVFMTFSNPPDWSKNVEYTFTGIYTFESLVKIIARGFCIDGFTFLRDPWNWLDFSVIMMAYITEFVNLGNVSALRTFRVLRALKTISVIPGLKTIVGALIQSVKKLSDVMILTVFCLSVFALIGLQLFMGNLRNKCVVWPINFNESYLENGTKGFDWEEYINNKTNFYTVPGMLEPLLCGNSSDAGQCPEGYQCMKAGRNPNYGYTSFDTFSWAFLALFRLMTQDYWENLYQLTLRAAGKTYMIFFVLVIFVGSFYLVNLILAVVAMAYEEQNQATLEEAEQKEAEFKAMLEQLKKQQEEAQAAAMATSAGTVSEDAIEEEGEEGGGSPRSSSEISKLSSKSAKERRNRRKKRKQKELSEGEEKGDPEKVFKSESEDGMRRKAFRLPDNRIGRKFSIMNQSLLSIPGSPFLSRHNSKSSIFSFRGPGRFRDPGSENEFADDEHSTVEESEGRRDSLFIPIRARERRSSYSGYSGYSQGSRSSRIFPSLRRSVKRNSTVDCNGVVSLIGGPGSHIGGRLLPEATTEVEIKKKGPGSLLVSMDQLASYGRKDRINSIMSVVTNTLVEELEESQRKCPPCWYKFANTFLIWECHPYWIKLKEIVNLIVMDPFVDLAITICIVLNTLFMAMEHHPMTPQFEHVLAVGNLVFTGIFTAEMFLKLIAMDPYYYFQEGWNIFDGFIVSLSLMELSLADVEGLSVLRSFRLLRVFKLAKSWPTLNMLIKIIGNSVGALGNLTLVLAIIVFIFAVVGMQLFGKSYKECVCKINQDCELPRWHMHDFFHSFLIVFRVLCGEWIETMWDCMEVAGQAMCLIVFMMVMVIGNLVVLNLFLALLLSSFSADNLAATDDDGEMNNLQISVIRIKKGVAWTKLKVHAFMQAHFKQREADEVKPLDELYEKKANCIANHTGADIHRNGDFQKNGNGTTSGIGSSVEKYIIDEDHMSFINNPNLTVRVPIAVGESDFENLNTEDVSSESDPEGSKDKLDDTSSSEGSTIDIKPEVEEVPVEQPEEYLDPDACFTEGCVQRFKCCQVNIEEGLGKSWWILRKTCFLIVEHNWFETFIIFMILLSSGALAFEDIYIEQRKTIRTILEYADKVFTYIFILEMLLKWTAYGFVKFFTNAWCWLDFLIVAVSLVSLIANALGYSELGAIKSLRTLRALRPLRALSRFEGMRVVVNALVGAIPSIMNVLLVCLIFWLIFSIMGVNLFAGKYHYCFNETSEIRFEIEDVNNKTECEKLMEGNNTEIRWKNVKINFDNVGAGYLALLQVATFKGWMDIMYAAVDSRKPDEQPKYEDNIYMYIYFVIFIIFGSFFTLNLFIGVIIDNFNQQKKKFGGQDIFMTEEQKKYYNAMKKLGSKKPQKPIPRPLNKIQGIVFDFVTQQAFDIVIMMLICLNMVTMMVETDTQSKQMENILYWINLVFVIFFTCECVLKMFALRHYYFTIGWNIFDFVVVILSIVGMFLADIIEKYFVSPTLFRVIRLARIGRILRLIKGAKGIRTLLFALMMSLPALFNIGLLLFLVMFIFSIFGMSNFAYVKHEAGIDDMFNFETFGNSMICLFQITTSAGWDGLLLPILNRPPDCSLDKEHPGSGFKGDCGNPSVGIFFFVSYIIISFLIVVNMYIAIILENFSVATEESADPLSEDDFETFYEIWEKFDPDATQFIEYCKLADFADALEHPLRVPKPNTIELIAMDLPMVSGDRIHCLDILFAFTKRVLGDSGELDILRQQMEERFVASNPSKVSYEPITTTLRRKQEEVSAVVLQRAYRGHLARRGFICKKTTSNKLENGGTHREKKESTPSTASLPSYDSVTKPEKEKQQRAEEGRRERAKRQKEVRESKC
Chain of Sodium channel protein type 9 subunit alpha (Q15858 whole entry): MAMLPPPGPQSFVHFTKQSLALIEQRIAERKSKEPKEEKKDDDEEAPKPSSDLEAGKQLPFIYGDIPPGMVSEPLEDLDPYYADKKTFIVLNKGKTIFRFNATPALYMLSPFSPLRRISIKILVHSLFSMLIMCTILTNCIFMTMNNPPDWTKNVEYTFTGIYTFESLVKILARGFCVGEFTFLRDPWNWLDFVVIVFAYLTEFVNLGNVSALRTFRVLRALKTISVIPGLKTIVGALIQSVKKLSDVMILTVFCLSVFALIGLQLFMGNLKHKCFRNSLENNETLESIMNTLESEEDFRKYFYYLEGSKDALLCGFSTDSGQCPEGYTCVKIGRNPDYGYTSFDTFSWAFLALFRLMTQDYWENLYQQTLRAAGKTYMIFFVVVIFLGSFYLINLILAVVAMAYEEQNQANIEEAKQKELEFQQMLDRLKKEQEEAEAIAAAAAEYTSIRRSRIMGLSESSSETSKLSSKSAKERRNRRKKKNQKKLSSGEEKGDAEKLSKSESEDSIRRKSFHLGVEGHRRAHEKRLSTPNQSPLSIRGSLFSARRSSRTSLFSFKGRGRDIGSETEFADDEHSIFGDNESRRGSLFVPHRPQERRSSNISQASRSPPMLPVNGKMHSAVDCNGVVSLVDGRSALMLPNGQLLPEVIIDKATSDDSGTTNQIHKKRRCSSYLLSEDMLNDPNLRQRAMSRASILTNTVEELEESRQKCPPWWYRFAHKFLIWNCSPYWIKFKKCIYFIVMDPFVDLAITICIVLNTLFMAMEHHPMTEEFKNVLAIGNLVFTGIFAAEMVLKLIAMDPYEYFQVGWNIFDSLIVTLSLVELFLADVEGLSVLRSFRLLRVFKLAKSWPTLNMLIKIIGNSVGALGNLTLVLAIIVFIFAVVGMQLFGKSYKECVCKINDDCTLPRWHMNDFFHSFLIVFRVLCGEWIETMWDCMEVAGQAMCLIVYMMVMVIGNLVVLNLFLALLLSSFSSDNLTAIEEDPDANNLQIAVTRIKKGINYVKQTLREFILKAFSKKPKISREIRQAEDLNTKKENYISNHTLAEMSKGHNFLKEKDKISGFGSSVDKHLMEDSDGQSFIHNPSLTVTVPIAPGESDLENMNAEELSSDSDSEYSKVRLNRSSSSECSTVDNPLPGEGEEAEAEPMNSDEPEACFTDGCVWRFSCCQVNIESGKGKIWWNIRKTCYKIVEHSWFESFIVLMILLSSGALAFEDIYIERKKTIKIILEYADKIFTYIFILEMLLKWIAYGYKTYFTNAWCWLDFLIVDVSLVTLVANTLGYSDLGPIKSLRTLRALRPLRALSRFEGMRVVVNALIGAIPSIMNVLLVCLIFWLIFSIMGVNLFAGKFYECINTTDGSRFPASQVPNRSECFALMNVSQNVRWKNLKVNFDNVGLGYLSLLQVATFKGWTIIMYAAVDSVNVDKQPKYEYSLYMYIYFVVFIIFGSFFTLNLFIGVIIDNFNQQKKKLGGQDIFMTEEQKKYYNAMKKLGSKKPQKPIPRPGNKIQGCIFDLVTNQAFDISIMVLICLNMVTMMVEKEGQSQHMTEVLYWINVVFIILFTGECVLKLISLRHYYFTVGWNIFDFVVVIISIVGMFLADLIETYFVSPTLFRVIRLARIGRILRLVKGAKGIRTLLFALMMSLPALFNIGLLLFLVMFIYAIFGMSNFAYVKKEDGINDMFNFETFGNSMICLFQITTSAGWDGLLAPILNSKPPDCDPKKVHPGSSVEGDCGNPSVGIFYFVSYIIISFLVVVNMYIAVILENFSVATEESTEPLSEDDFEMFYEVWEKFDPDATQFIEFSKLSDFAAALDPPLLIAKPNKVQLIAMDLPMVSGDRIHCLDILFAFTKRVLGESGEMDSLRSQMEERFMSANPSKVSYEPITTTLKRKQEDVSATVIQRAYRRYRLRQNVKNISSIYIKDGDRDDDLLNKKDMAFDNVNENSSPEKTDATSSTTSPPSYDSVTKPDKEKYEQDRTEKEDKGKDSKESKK

As to `CC(=O)N[C@H]1CSSC[C@@H]2NC(=O)[C@@H]3CSSC[C@@H](C(=O)N[C@@H](CCCCN)C(=O)N[C@@H](CCCCN)C(=O)N[C@@H](CCCCN)C(=O)N[C@@H](CC(C)C)C(N)=O)NC(=O)[C@H](Cc4c[nH]c5ccccc45)NC(=O)[C@H](C4CCCCC4)NC(=O)[C@H](CCCCN)NC(=O)[C@H](CSSC[C@H](NC(=O)[C@@H]4CCCN4C(=O)[C@H](CCC(=O)O)NC(=O)[C@H](CC(F)(F)F)NC(=O)[C@H](Cc4ccccc4)NC(=O)[C@H](CCCCN)NC(=O)[C@H](CCC(N)=O)NC1=O)C(=O)N[C@@H](CC(=O)O)C(=O)N[C@@H](CO)C(=O)N[C@@H](CCC(=O)O)C(=O)N[C@@H](CCCNC(=N)N)C(=O)N[C@@H](CCCCN)C(=O)N3)NC(=O)[C@H](CCC(=O)O)NC(=O)[C@H](CC(C)C)NC(=O)CNC(=O)[C@H](CCC(=O)O)NC2=O` (Ac-CQKF[Abu(4,4,4-F3)]EPCDSERKCCEGLECK[Chg]WCKKKL-NH2; disulfide 1-15, 8-20, 14-24), the results for the IC50 in assay [1], in assay [2] and in assay [4] were above 17000 nM, above 17000 nM and 240 nM, respectively. Moreover, the LED in assay [3] was 100 µM.

In the case of `CC(=O)N[C@H]1CSSC[C@@H]2NC(=O)[C@@H]3CSSC[C@@H](C(=O)N[C@@H](CCCCN)C(=O)N[C@@H](CCCCN)C(=O)N[C@@H](CCCCN)C(=O)N[C@@H](CC(C)C)C(=O)N[C@@H](Cc4c[nH]c5ccccc45)C(N)=O)NC(=O)[C@H](Cc4c[nH]c5ccccc45)NC(=O)[C@H](C4CCCCC4)NC(=O)[C@H](CCCCN)NC(=O)[C@H](CSSC[C@H](NC(=O)[C@@H]4CCCN4C(=O)[C@H](CCC(=O)O)NC(=O)[C@H](CC(F)(F)F)NC(=O)[C@H](Cc4ccccc4)NC(=O)[C@H](CCCCN)NC(=O)[C@H](CCC(N)=O)NC1=O)C(=O)N[C@@H](CC(=O)O)C(=O)N[C@@H](CO)C(=O)N[C@@H](CCC(=O)O)C(=O)N[C@@H](CCCNC(=N)N)C(=O)N[C@@H](CCCCN)C(=O)N3)NC(=O)[C@H](CCC(=O)O)NC(=O)[C@H](CC(C)C)NC(=O)CNC(=O)[C@H](CCC(=O)O)NC2=O` (Ac-CQKF[Abu(4,4,4-F3)]EPCDSERKCCEGLECK[Chg]WCKKKLW-NH2; disulfide 1-15, 8-20, 14-24), the IC50 is above 17000 nM in assay [1], above 17000 nM in assay [2] and 84 nM in assay [4]. Besides, the LED in assay [3] was found to be 30 µM.

On to `CC(=O)N[C@H]1CSSC[C@@H]2NC(=O)[C@@H]3CSSC[C@@H](C(=O)N[C@@H](CCCCN)C(=O)N[C@@H](CCCCN)C(=O)N[C@@H](CCCCN)C(=O)N[C@@H](CC(C)C)C(=O)N[C@@H](Cc4c[nH]c5ccccc45)C(N)=O)NC(=O)[C@H](Cc4c[nH]c5ccccc45)NC(=O)[C@H](CC4CCCCC4)NC(=O)[C@H](CCCCN)NC(=O)[C@H](CSSC[C@H](NC(=O)[C@@H]4CCCN4C(=O)[C@H](CCC(=O)O)NC(=O)[C@H](CC(F)(F)F)NC(=O)[C@H](CC4CCCCC4)NC(=O)[C@H](CCCCN)NC(=O)[C@H](CCC(N)=O)NC1=O)C(=O)N[C@@H](CC(=O)O)C(=O)N[C@@H](CO)C(=O)N[C@@H](CCC(=O)O)C(=O)N[C@@H](CCCNC(=N)N)C(=O)N[C@@H](CCCCN)C(=O)N3)NC(=O)[C@H](CCC(=O)O)NC(=O)[C@H](CC(C)C)NC(=O)CNC(=O)[C@H](CCC(=O)O)NC2=O` (Ac-CQK[Cha][Abu(4,4,4-F3)]EPCDSERKCCEGLECK[Cha]WCKKKLW-NH2; disulfide 1-15, 8-20, 14-24), for which the figures for the IC50 in assay [1], in assay [2] and in assay [4] were above 17000 nM, above 17000 nM and 76 nM, respectively. Moreover, the LED in assay [3] came out at 33 µM.

As for `CC(=O)N[C@H]1CSSC[C@@H]2NC(=O)[C@@H]3CSSC[C@@H](C(=O)N[C@@H](CCCCN)C(=O)N[C@@H](CCCCN)C(=O)N[C@@H](CCCCN)C(=O)N[C@@H](CC(C)C)C(=O)N[C@@H](Cc4c[nH]c5ccccc45)C(N)=O)NC(=O)[C@H](Cc4c[nH]c5ccccc45)NC(=O)[C@H](C4CCCCC4)NC(=O)[C@H](CCCCN)NC(=O)[C@H](CSSC[C@H](NC(=O)[C@@H]4CCCN4C(=O)[C@H](CCC(=O)O)NC(=O)[C@H](CC(F)(F)F)NC(=O)[C@H](CC4CCCCC4)NC(=O)[C@H](CCCCN)NC(=O)[C@H](CCC(N)=O)NC1=O)C(=O)N[C@@H](CC(=O)O)C(=O)N[C@@H](CO)C(=O)N[C@@H](CCC(=O)O)C(=O)N[C@@H](CCCNC(=N)N)C(=O)N[C@@H](CCCCN)C(=O)N3)NC(=O)[C@H](CCC(=O)O)NC(=O)[C@H](CC(C)C)NC(=O)CNC(=O)[C@H](CCC(=O)O)NC2=O` (Ac-CQK[Cha][Abu(4,4,4-F3)]EPCDSERKCCEGLECK[Chg]WCKKKLW-NH2; disulfide 1-15, 8-20, 14-24), the IC50 was above 17000 nM in assay [1], above 17000 nM in assay [2] and 109 nM in assay [4]. The LED in assay [3] is 30 µM.

With `CC(=O)N[C@H]1CSSC[C@@H]2NC(=O)[C@@H]3CSSC[C@@H](C(=O)N[C@@H](CCCCN)C(=O)N[C@@H](CCCCN)C(=O)N[C@@H](CCCCN)C(=O)N[C@@H](CC(C)C)C(=O)N[C@@H](Cc4c[nH]c5ccccc45)C(N)=O)NC(=O)[C@H](Cc4c[nH]c5ccccc45)NC(=O)[C@H](C4CCCCC4)NC(=O)[C@H](CCCCN)NC(=O)[C@H](CSSC[C@H](NC(=O)[C@@H]4CCCN4C(=O)[C@H](CCC(=O)O)NC(=O)[C@H](CC(F)(F)F)NC(=O)[C@H](Cc4cccc(Cl)c4)NC(=O)[C@H](CCCCN)NC(=O)[C@H](CCC(N)=O)NC1=O)C(=O)N[C@@H](CC(=O)O)C(=O)N[C@@H](CO)C(=O)N[C@@H](CCC(=O)O)C(=O)N[C@@H](CCCNC(=N)N)C(=O)N[C@@H](CCCCN)C(=O)N3)NC(=O)[C@H](CCC(=O)O)NC(=O)[C@H](CC(C)C)NC(=O)CNC(=O)[C@H](CCC(=O)O)NC2=O` (Ac-CQK[Phe(3-Cl)][Abu(4,4,4-F3)]EPCDSERKCCEGLECK[Chg]WCKKKLW-NH2; disulfide 1-15, 8-20, 14-24), the IC50 is above 17000 nM in assay [1], above 17000 nM in assay [2] and 64 nM in assay [4]. Moreover, the LED in assay [3] worked out at 33 µM.

Consider `CC(=O)N[C@H]1CSSC[C@@H]2NC(=O)[C@@H]3CSSC[C@@H](C(=O)N[C@@H](CCCCN)C(=O)N[C@@H](CCCCN)C(=O)N[C@@H](CCCCN)C(=O)N[C@@H](CC(C)C)C(=O)N[C@@H](Cc4c[nH]c5ccccc45)C(=O)O)NC(=O)[C@H](Cc4c[nH]c5ccccc45)NC(=O)[C@H](C4CCCCC4)NC(=O)[C@H](CCCCN)NC(=O)[C@H](CSSC[C@H](NC(=O)[C@@H]4CCCN4C(=O)[C@H](CCC(=O)O)NC(=O)[C@H](CC(F)(F)F)NC(=O)[C@H](Cc4ccc(Cl)cc4)NC(=O)[C@H](CCCCN)NC(=O)[C@H](CCC(N)=O)NC1=O)C(=O)N[C@@H](CC(=O)O)C(=O)N[C@@H](CO)C(=O)N[C@@H](CCC(=O)O)C(=O)N[C@@H](CCCNC(=N)N)C(=O)N[C@@H](CCCCN)C(=O)N3)NC(=O)[C@H](CCC(=O)O)NC(=O)[C@H](CC(C)C)NC(=O)CNC(=O)[C@H](CCC(=O)O)NC2=O` (Ac-CQK[Phe(4-Cl)][Abu(4,4,4-F3)]EPCDSERKCCEGLECK[Chg]WCKKKLW-OH; disulfide 1-15, 8-20, 14-24), for which the IC50 was above 17000 nM in assay [1], 11100 nM in assay [2] and 91 nM in assay [4]. The LED in assay [3] came out at 30 µM.

On to `CC(=O)N[C@H]1CSSC[C@@H]2NC(=O)[C@@H]3CSSC[C@@H](C(=O)N[C@@H](CCCCN)C(=O)N[C@@H](CCCCN)C(=O)N[C@@H](CCCCN)C(=O)N[C@@H](CC(C)C)C(=O)N[C@@H](Cc4c[nH]c5ccccc45)C(N)=O)NC(=O)[C@H](Cc4c[nH]c5ccccc45)NC(=O)[C@H](C4CCCCC4)NC(=O)[C@H](CCCCN)NC(=O)[C@H](CSSC[C@H](NC(=O)[C@@H]4CCCN4C(=O)[C@H](CCC(=O)O)NC(=O)[C@H](CC(F)(F)F)NC(=O)[C@H](Cc4c[nH]c5ccc(Br)cc45)NC(=O)[C@H](CCCCN)NC(=O)[C@H](CCC(N)=O)NC1=O)C(=O)N[C@@H](CC(=O)O)C(=O)N[C@@H](CO)C(=O)N[C@@H](CCC(=O)O)C(=O)N[C@@H](CCCNC(=N)N)C(=O)N[C@@H](CCCCN)C(=O)N3)NC(=O)[C@H](CCC(=O)O)NC(=O)[C@H](CC(C)C)NC(=O)CNC(=O)[C@H](CCC(=O)O)NC2=O` (Ac-CQK[Trp(5-Br)][Abu(4,4,4-F3)]EPCDSERKCCEGLECK[Chg]WCKKKLW-NH2; disulfide 1-15, 8-20, 14-24), for which the IC50 was above 17000 nM in assay [1], 2610 nM in assay [2] and 30 nM in assay [4]. Besides, in assay [3], the LED came to 3.3 µM.
